Columns and labels:
Assay in all cases: UV-Vis absorption titration (Kb) and tryptophan fluorescence quenching (KSV […])
Type in all cases: binding
[1] = target: T1, human serum albumin (HSA) (Homo sapiens, UniProt P02768)
T1 construct: gene ALB

[2] = target: T1, human serum albumin (HSA); remark: listed apart in the source
[3] = target: T1, human serum albumin (HSA); remark: listed apart in the source

T1 sequence (P02768 25-609): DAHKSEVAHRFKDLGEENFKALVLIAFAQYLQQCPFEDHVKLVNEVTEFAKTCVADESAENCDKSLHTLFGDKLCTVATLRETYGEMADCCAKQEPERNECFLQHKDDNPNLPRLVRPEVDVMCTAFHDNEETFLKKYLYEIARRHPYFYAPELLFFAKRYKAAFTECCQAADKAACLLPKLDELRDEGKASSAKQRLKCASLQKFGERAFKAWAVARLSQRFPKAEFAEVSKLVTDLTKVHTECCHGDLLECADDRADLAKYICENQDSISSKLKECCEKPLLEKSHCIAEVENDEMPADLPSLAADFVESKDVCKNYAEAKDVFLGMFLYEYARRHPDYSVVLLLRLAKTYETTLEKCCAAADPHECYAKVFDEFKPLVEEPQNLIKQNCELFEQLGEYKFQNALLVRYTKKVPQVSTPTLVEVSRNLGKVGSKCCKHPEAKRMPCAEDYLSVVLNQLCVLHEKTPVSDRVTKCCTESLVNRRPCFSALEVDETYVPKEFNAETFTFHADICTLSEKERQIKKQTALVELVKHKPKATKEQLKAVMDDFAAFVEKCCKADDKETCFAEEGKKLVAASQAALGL

Substance: [(UO2)(OAc)2(CMZ)]
- UV-Vis absorption titration (Kb) and tryptophan fluorescence quenching (KSV 7.2×) [1]: 2.10×10^5

Substance: [(UO2)(OAc)2(MP)]
- UV-Vis absorption titration (Kb) and tryptophan fluorescence quenching (KSV 9.75) [2]: 2.26×10^5

Substance: [(UO2)(OAc)2(SCZ)]
- UV-Vis absorption titration (Kb) and tryptophan fluorescence quenching (KSV 9.46) [3]: 7×10^4

Source: PMC8376047, “Complexation of uranyl (UO2)^2+ with bidentate ligands: XRD, spectroscopic, computational, and biological studies” (PLoS ONE, 2021)
